pEC50, pKi: −log10 of the molar value.
Tests used:
[1] = HPLC analysis of mouse serum for compound level; assay type: in vivo; conditions: 2×140 mg 1MT pellets implanted subcutaneously, 3 days, male FVB mice
Description: Protein was removed by TCA precipitation.

[2] = time-release pellets, manufacturer's specifications; cited from earlier work
[3] = test system: tumor growth in a mouse model; conditions: Friberg et al. 2002; U.S. Pat. No. 6,482,416; cited from earlier work
allogenic conceptus = assay: allogeneic conceptus rejection in mice; assay type: in vivo, mouse; conditions: 20 mg/day from two time-release pellets; unpublished results
Experimental: (§1) The time-release pellets are composed of a copolymer which is inert and gradually dissolves and breaks down to a non-toxic substance that remains largely localized during the course of the experiment. […] Two pellets per mouse were implanted to deliver a total dose of 20 mg/day. Therefore, for a 25 g mouse the total dose is 800 mg/kg/day or 280 mg over a 14 day period. Steady-state levels were reached within 12-24 hours and are maintained throughout the entire period based on the manufacturer's specifications.

IDO = conditions: cited from earlier work; for potency ranking as IDO inhibitor (literature): Peterson et al. 1993, 1994
[4] = test system: established tumors in MMTVneu "oncomouse" model; assay: MMTVneu transgenic oncomouse model of breast cancer, change in tumor volume over two weeks; assay type: in vivo, mouse; conditions: for effect on tumor growth: two week course, 1MT 20 mg/day s.c. time-release pellets, cytotoxics i.v. at maximum-tolerated doses
Description: The MMTVneu transgenic “oncomouse” model of breast cancer was used to measure the effects of IDO inhibitors and STIs on tumor pathophysiology. The MMTVneu transgenic mouse develops aggressive tumors of the mammary gland that resemble poorly differentiated human ductal carcinomas. In the MMTVneu mouse model, breast cancer is initiated by tissue-specific expression of a mutant form of the HER-2/Neu gene that is activated frequently in aggressive human breast ductal carcinomas. HER-2 is a member of the EGF-R family of cell surface growth factor receptors. Myc is an obligate downstream effector for HER-2/Neu to drive cancer. Female MMTVneu “oncomice” are mated twice to initiate expression from the mouse mammary tumor virus (wry) promoter which drives transcription of the Neu/HER2 oncogene in mammary tissue. Mammary tumors arise with a penetrance of >90% in this model system by 5 months of age. MMTVneu “oncomice” bearing similarly sized tumors of ˜150 mm^3 were randomly assigned to control or experimental treatment groups. Control mice were implanted with placebo time-release pellets (Innovative Research, Inc., Sarasota, Fla.).
as §1, with “period.” for “period. Steady-state levels were reached within 12-24 hours and are maintained throughout the entire period based on the manufacturer's specifications.”
Time-release pellets were introduced subcutaneously on the backs of mice anesthetized by intramuscular injection of ketamin/rompun. Blunt dissection with a hemostat is used to separate the skin from the underlying muscle to create a subcutaneous pocket. One or two biodegradable slow release pellets were implanted within this pocket, rather than directly under the incision in order to prevent mechanical stress and wound dehiscence. The incision was then closed with wound clips.
MMTVneu “oncomice” bearing similarly sized tumors of ˜150 mm^3 were randomly assigned to control or experimental treatment groups. Control mice were implanted with placebo time-release pellets (Innovative Research, Inc., Sarasota, Fla.).
The cytotoxic chemotherapeutic agents were prepared and delivered to the mice as follows. Paclitaxel was dissolved in equal volumes of absolute ethanol and the clinically-used solubilizing agent Cremophor® EL. The solution was sonicated up to 30 minutes and stored as a 20 mg/ml stock solution at 4° C. for up to one week. Before use, this solution was diluted further at 1:5 with sterile physiological saline. Paclitaxel formulated in this manner was administered to mice by a single bolus intravenous (i.v.) injection into the tail vein. Mouse tails can be warmed to facilitate identification and injection of the vein. […] The MTD of cisplatin (1 mg/kg) was obtained as a clinical preparation in saline and delivered as a bolus i.v. injection on the same schedule. Control treated mice received only the Cremophor° EL vehicle formulation without paclitaxel.
Statistical analysis of the tumors of MMTVneu mice after various treatments. Numbers are provided as percent change in tumor volume as compared to the tumor volume prior to treatment.

human IDO [5] = molecular target: T1, human IDO (Homo sapiens, UniProt P14902); assay: cell-based screen, 293/Phoenix cells transiently transfected with human IDO, kynurenine in media
[6] = molecular target: T2, tryptophan 2,3-dioxygenase (TDO2) (Homo sapiens, UniProt P48775); assay: cell-based screen, 293/Phoenix cells transiently transfected with TDO (selectivity); conditions: IDO versus TDO2
T2 construct: expressed in transfected cells; host or cells: human 293/Phoenix cells
Experimental: FIGS. 27A-27C provide a chart of certain IDO inhibitors, their structures, and their ability to inhibit IDO and TDO activity at a concentration of 250 μM in a cell-based assay.
The candidate compounds were also screened in a cell-based assay (for similar assay see Munn et al. (1999) J. Exp. Med. 189:1363-1372). Briefly, human 293/Phoenix cells were transiently transfected with human IDO or TDO cDNA expression vectors. The candidate compounds were added to the transfected cells at various concentrations. Kynurenine was quantitated in tissue culture media using a fluorescence-based protocol.

human IDO [7] = molecular target: T1, human IDO; assay: IDO enzyme assay (kynurenine production), enzyme kinetics for Ki; assay type: biochemical
Experimental: Data were plotted and analyzed using the Prism4 software package (GraphPad).
This assay is also used to determine Ki values for specific compounds, which is important for the development of SAR (structure activity relationship) around the different compound series.
Kynurenine production can be measured at 1 hour. More extensive enzyme kinetic data can be collected for selected compounds of interest.

intracellular IDO = molecular target: T3, intracellular IDO (Homo sapiens, UniProt P14902); assay: cell-based IDO inhibitor assay, COS-1 cells transiently transfected with IDO cDNA, dose escalation
T3 construct: expressed in transfected cells; host or cells: COS-1 cells, CMV promoter-driven plasmid, Lipofectamine 2000
Experimental: COS-1 cells are transiently transfected with a CMV promoter-driven plasmid expressing IDO cDNA using Lipofectamine 2000 (Invitrogen) as recommended by the manufacturer. […] The following day the wells are washed and new media (phenol red free) containing 20 μg/ml tryptophan is added together with inhibitor.

[8] = compared to the tumor volume prior to treatment, two weeks

T1 sequence (P14902 whole entry): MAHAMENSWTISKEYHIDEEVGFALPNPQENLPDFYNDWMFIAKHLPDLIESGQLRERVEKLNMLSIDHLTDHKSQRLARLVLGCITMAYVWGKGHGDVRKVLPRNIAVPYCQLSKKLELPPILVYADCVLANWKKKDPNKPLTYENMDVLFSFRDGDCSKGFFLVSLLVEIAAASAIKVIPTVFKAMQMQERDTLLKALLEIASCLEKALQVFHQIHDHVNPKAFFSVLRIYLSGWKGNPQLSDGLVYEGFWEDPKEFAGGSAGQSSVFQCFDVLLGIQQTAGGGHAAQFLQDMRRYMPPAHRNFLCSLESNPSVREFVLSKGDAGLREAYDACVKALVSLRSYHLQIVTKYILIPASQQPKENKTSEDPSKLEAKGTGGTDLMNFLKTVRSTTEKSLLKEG
T2 sequence (P48775 whole entry): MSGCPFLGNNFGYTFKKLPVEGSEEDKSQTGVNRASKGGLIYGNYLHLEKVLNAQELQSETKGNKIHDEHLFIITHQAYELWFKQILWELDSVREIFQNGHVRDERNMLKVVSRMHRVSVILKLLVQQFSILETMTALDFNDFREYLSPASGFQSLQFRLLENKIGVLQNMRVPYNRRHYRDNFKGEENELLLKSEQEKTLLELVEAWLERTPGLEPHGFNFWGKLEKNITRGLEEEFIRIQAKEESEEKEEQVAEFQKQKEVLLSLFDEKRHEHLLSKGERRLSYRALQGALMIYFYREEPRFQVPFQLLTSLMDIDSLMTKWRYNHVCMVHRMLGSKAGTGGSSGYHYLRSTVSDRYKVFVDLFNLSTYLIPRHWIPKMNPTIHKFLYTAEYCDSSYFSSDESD
T3 sequence (P14902 whole entry): as the sequence (P14902 whole entry) above

Cn1cc(CC(N)C(=O)O)c2ccccc21 (racemic) [1MT, 1-methyl-DL-tryptophan]
1MT level in serum [1]: ~100 µM | time to steady-state levels [2]: 12 to 24 h | effect on tumor growth (literature) [3]: only retarded and did not prevent tumor growth | allogenic conceptus rejection (allogenic conceptus): effective at eliciting allogenic conceptus rejection

Nc1cc2ccccc2cc1C(=O)O [3-amino-2-naphthoic acid]
potency ranking as IDO inhibitor (literature) (IDO): most potent IDO inhibitor

CCCCc1cc2c(cn1)[nH]c1ccccc12 [3-butyl-β-carboline]
potency ranking as IDO inhibitor (literature) (IDO): most active derivative

CC[C@H](C)[C@@H](CO[C@@H](Cc1ccccc1)C(=O)N[C@@H](CCS(C)(=O)=O)C(=O)OC(C)C)NC[C@@H](N)CS [L-744,832]
effect on tumor growth [4]: retarded but did not block tumor growth

CN1C(=O)C(Cc2c[nH]c3ccccc23)NC1=S (centres unmarked) [MTH-Trp, 3-(N-methyl-thiohydantoin)-indole]
inhibition of IDO activity relative to 1MT (human IDO [5]; at a concentration of 250 μM, compared with 1MT): 2.7 times | potency ranking among screened compounds (human IDO [5]; cell-based screen): most potent of these inhibitors | selectivity over tryptophan 2,3-dioxygenase (TDO2) [6]: significant selectivity | potency of direct IDO enzyme inhibition relative to 1MT (human IDO [7]; compared with 1MT): about 3 fold | pKi (human IDO [7]; human IDO, global nonlinear regression of enzyme kinetic data, read-out: Best fit values of Ki): 4.94 | pEC50 (intracellular IDO; COS-1 cells expressing IDO, 5 hours, 20 μg/ml tryptophan): 4.89 | potency against intracellular IDO relative to 1MT (intracellular IDO; compared with 1MT): ~20 fold

C=CCN1C(=O)C(Cc2c[nH]c3ccccc23)NC1=S (centres unmarked) [N-allyl, 3-(N-allyl-thiohydantoin)-indole]
selectivity over tryptophan 2,3-dioxygenase (TDO2) [6]: significant selectivity

O=C1C(Cc2c[nH]c3ccccc23)NC(=S)N1c1ccccc1 (centres unmarked) [N-phenyl, 3-(N-phenyl-thiohydantoin)-indole]
selectivity over tryptophan 2,3-dioxygenase (TDO2) [6]: significant selectivity

c1ccc2c(c1)[nH]c1sncc12 [brassilexin]
mode of IDO inhibition (literature) (IDO; Peterson et al. 1993): noncompetitive inhibitor of IDO

N.N.[Cl][Pt][Cl] [cisplatin]
Maximum percent change in tumor volume [4, 8]: 255.6% | Mean percent change in tumor volume [4, 8]: 91.35% | Median percent change in tumor volume [4, 8]: 40% | Minimum percent change in tumor volume [4, 8]: −26.53% | effect on tumor growth [4]: retarded but did not block tumor growth

CC(=O)O[C@H]1C(=O)[C@@]2(C)[C@H]([C@H](OC(=O)c3ccccc3)[C@]3(O)C[C@H](OC(=O)[C@H](O)[C@@H](NC(=O)c4ccccc4)c4ccccc4)C(C)=C1C3(C)C)[C@]1(OC(C)=O)CO[C@@H]1C[C@@H]2O [paclitaxel]
25% Percentile percent change in tumor volume [4, 8]: 40.25% | 75% Percentile percent change in tumor volume [4, 8]: 247.6% | Maximum percent change in tumor volume [4, 8]: 360.8% | Mean percent change in tumor volume [4, 8]: 139.4% | Median percent change in tumor volume [4, 8]: 130.4% | Minimum percent change in tumor volume [4, 8]: 20% | effect on tumor growth [4]: retarded but did not block tumor growth

Source: patent US8476454B2, “IDO inhibitors and methods of use” (Lankenau Institute for Medical Research, priority 2003, dated 2013)
